# According to a melting point compilation (Tetko et al.; mined from patent text by program, amines drawn as free bases though some values may be those of a salt):
row,Compound,melting point [°C]
1,CS(=O)(=O)c1ccc(-c2cnn(Cc3ccccc3)c(=O)c2Cl)cc1,166 to 167
2,N#CCCCCCC(=O)c1ccc(Cl)cc1,44 to 46
3,O=C(CCc1ccc(F)cc1)Cn1ccnc1,69 to 70
4,Cc1cc(-c2ccc(C(F)(F)F)cc2)cc(-c2cccc(-c3cccc(S(=O)(=O)NC(=O)C(C)C)c3)n2)n1,190
5,CC12CCC3C(CCC4C(=O)CCCC43C)C1CCC2OC1CCCCO1 (configuration not stated),123 to 126
6,CCCNC(=O)NNC(=O)c1ccccc1,172 to 174
7,CCn1c(=O)nc(C(C)C)c2cc3c(cc21)OCO3,180 to 185
8,CC12C=CC(=O)C=C1CCC1C2C(O)CC2(C)C(C(=O)CO)=CCC12 (configuration not stated),213 to 215
9,CCOC(=O)c1cn(C(=O)OCC(C)C)c2c(COC(C)=O)cc(C)cc2c1=O,101 to 103
10,CC1(C)C(=O)N(C(=O)NCC2CCN(CC3(C(=O)O)CCC3)CC2)c2cc(F)ccc21,193
11,Cc1nc(-n2ccc(OCc3ccc(F)cc3)cc2=O)sc1C(=O)NCc1ccc(F)cc1,249 to 251
12,O=S(=O)(c1ccc(Cl)cc1)C(c1cc(F)ccc1F)c1cc(CO)ncc1Br (configuration not stated),172 to 173
13,CC1(COc2ccc([N+](=O)[O-])cc2)CC(=O)c2cc(O)c(C(C)(C)C)cc2O1 (configuration not stated),205 to 209
14,COC(=O)c1sc(C)c(C#N)c1N,209 to 210
15,COc1ccc(N2C(=O)Cc3ccccc32)cc1,115 to 117
16,CN(C)CCc1[nH]c2ccccc2c1CC(N)=O,114 to 117
17,Cc1cc(N2CCC(CC(=O)N3CCN(Cc4ccccc4)CC3)CC2)ccc1Oc1ccc(NS(=O)(=O)c2ccc(Cl)c(Cl)c2)cn1,151 to 155
18,Clc1ccc2c(c1)N(c1ncnc3ccc(N4CCOCC4)cc13)CC2,277 to 279
19,Fc1ccc2[nH]cc(CCCNCCOc3cccc4[nH]ccc34)c2c1,70 to 73
20,COc1ccc(F)c2c1C(=O)CC2,118 to 120
21,COC(=O)c1cccc(Nc2nccc(-c3cn[nH]c3-c3ccc(F)cc3)n2)c1,> 265
22,CCOC(=O)C(=O)Nc1ccc(S(N)(=O)=O)cc1[N+](=O)[O-],193 to 195
23,CCCC1=C(C(=O)OCC)C(c2cccc(C#N)c2OC)c2c[nH]nc2N1 (configuration not stated),220 to 222
24,CC(C)(C(=O)O)c1ccc(OCCCc2cc3c(cc2O)CC(CCc2ccccc2)O3)cc1 (configuration not stated),134 to 136
25,CC(C)(O)c1ccnc(-c2ccc3nc(-c4n[nH]c5ccccc45)cn3c2)c1,255 to 259
26,CCCC=Cn1c2ccccc2c2ccccc21,47

row,Compound,melting point [°C]
1,O=C(O)c1cccc(-c2cc(-c3ccccc3)on2)c1,250 to 251
2,CN(C)OCc1nnc2n1-c1ccc(Cl)cc1C(c1ccccc1)=NC2,174
3,COc1ccc(/C=C(\C#N)c2ccccc2Br)cc1OC1CCCC1,100 to 103
4,CC(=O)Nc1ccc(OC(=O)COCc2ccccc2)cc1,106 to 109
5,Nc1ccc(CCCn2cnnc2)cc1,150 to 153
6,c1ccc(Oc2noc(-c3ccccc3)n2)cc1,62
7,O=C(O)Cn1c(-c2cccc(C(F)(F)F)c2)nc2cccnc21,240 to 242
8,Nc1nc2c(c(N3CCNCC3)n1)SCCC2,176 to 178
9,Oc1cc(C(F)(F)F)[nH]n1,211 to 215
10,O=C(O)C1Oc2cc3onc(-c4ccccc4)c3c(Cl)c2O1 (configuration not stated),102
11,CCP(=O)(OC)C(O)[C@H](CC1CCCCC1)NC(=O)[C@H](CC(C)C)NC(=O)[C@H](Cc1ccccc1)NC(=O)C1CCCC1 (some centres not stated),155 to 165
12,Nc1ccc(CN2CCNC(=O)C2=O)cc1,246 to 249
13,COc1cc(C(C)=O)ccc1OCCCN1CCN(c2nn(C(=O)c3ccccc3)c3cccc(F)c23)CC1,138 to 140
14,Cc1cnc(CCCC#N)c(N)c1,84 to 87
15,N#Cc1cccc(/C=C/C2=CCN(Cc3c[nH]c4ncccc34)CC2)c1,213 to 215
16,c1cc2c(c(-c3nc4ncccc4o3)c1)CCCC2,87 to 90
17,COC1OC(CO)C(OCc2ccccc2)C(O)C1OCc1ccccc1 (configuration not stated),104 to 105
18,Cn1cc2cc3ncc(-c4ccc(Cl)s4)nc3cc2n1,222 to 224
19,CC(C)CC(Oc1c(Br)cc(-c2ccc(-c3c(Cc4ccccc4)oc4ccccc34)cc2)cc1Br)C(=O)O (configuration not stated),81 to 83
20,Cc1cc(C)n(C(=O)c2cn3c(C)csc3n2)n1,172 to 176
21,O=c1[nH]c2c([nH]c1=O)C(O)c1ccccc1-2 (configuration not stated),> 300
22,Cc1ccc(-c2nc3c(N[C@H]4[C@@H](C(N)=O)[C@@H]5C=C[C@H]4C5)c(Br)cnc3[nH]2)o1,200 to 201
23,CCN(CC)CC#CC(=O)Nc1ccc2ncc(C#N)c(Nc3cccc(Br)c3)c2c1,133 to 135
24,CC(=O)Nc1cccc2c1C(=O)OC2C (configuration not stated),112
25,NC(=O)[C@H](CO)NC(=O)c1cccc(NS(=O)(=O)CC2CN(C(c3ccc(Cl)cc3)c3ccc(Cl)cc3)C2)c1,245 to 247
26,c1ccc2sc(SSN(C3CCCCC3)C3CCCCC3)nc2c1,84 to 86

row,Compound,melting point [°C]
1,CC(C)C[C@H](NC(=O)N1CCCCCC1)C(=O)OCc1ccccc1,79 to 82
2,CCCCCNC(CCCCC)=C1C(=O)ON=C1C,36
3,COc1c(F)c(F)c(-c2c3ccccc3c(-c3ccccc3)c3ccccc23)c(F)c1F,153 to 154
4,CSc1cccc(-c2nc(=O)c3ccccc3s2)n1,207 to 208
5,Cc1ccc(C(=O)OC2CCN(Cc3cccc(N)c3)CC2)cc1,100 to 102
6,Oc1ccc2c(c1)Nc1ccccc1S2,207 to 208
7,O=C1c2ccccc2C(OCCCl)N1c1ccccc1 (configuration not stated),71
8,COc1ccc(S(=O)(=O)N2c3cc(F)ccc3-c3ccc(F)cc3C2C)cc1 (configuration not stated),141 to 143
9,COc1ccc(C(=O)c2c(CBr)n(C(C)=O)c(=O)n2C(C)=O)cc1,135 to 136
10,Cc1cc(C)cc(Sc2cccc(N)c2C#N)c1,124 to 125
11,CCCOc1ccc(C#N)cc1-c1ccc(C#N)c(=O)[nH]1,248 to 251
12,COc1cc2c(N)nc(Cl)nc2c(OC)c1OC,244 to 245
13,N#Cc1cc2[nH]cc(C(=O)O)c2cc1-c1ccc(C2(CO)CC2)cc1,271 to 272
14,CCC(Oc1cc(C)c(Cl)c(C)c1)C(=O)NCc1cccs1 (configuration not stated),105 to 107
15,CCOC(=O)CN(C)CCCNC(=O)C=CC(=O)Nc1ccc2ncnc(Nc3cccc(Br)c3)c2c1,278 to 279
16,O=C1Nc2ccc(C(F)(F)F)cc2C1c1ncnc2nn(C3CCCCC3)cc12 (configuration not stated),> 300
17,CCOC(=S)c1cc(C)c(Br)cc1N,48 to 50
18,CC(C)n1nc(-c2sc(NC(=O)c3ccccn3)nc2-c2ccccc2)ccc1=O,245 to 246
19,CNC(=S)NCCCCCCc1csc(NC(=N)N)n1,162 to 164
20,COCCNC(=O)COc1ccn2nc(-c3ccccc3)c(-c3ccc(=O)n(C(C)C)n3)c2c1,144 to 146
21,OC(c1cscn1)(c1cscn1)C(F)(F)F,87 to 89
22,Cc1c(Cl)cncc1Cl,46 to 47
23,CC(=O)Oc1ccc(-c2cnc(C)nc2Cl)cc1OC(C)=O,111
24,CN(C)CCc1c(CC(N)=O)c2ccccc2n1C,131 to 134
25,O=C1C(=O)N(c2cccc(C(F)(F)F)c2)C(=O)N1c1ccccc1,116
26,CC(C)CN1CCc2ccc(C(=O)CCC(=O)N3CCC(c4ccc(Cl)cc4)CC3)cc2CC1,137 to 138

row,Compound,melting point [°C]
1,CCCCO/N=C(\C(=O)On1nnc2ccccc21)c1csc(NC(c2ccccc2)(c2ccccc2)c2ccccc2)n1,100 to 102
2,Cc1cc(=O)n(-c2ccc(Cl)cc2F)c(=O)[nH]1,> 220
3,COc1ccc(C(=O)NNC(=O)c2ccc([N+](=O)[O-])cc2)cc1,256 to 258
4,CN1C(=O)c2cccnc2N(CC(=O)OC(C)(C)C)c2ccccc21,64 to 65
5,O=C1C(=O)c2ccc(-c3ccncc3)cc2C2=C1SCC1(CCNCC1)O2,223 to 228
6,CCOC(=O)CCCOc1ccc(C(C)=O)cc1OC,53 to 55
7,CC(N1C(=O)C(=O)N(c2cccc(C#N)c2)C1=S)C(C)(C)C (configuration not stated),168 to 169
8,CC(C(=O)O)=C1c2ccccc2C=Cc2ccccc21,235 to 236
9,COC(=O)CCn1c(=O)n(CCN2CCN(c3ccccc3)CC2)c(=O)c2cscc21,133 to 134
10,Cc1nc2c(O)cccn2c1C=O,251 to 252
11,C[C@@H]1CCN(C(=O)C(C)(C)C)[C@@H](C(=O)O)C1,87 to 90
12,CN=C1CN(c2ccccc2)C(=O)N1C,160 to 162
13,Cc1c(NC(=O)CC(C)(C)C)c(C)c2c(c1-c1ccccc1)OCC2c1ccc(C(C)C)cc1 (configuration not stated),178 to 182
14,CCCc1cc2ccc(CC(=O)OC)cc2n1C(C)=O,85 to 87
15,CC1(C)CC(NC(=O)c2ccc(-c3cc4cc(Cl)c(Cl)cc4[nH]3)c(O)c2)CC(C)(C)N1,> 270
16,Oc1noc2ccc(F)cc12,201 to 203
17,O=C(Cc1ccccc1Cl)Nc1ccc(C(=O)N2Cc3ccccc3Cc3ccccc32)cc1,191 to 194
18,CC#COc1ccc2c(=O)c3ccccc3oc2c1,142 to 144
19,C(=C\c1cccs1)/c1nc(COc2ccc(CCCn3ccnc3)cc2)co1,131 to 132
20,COc1ccc2c(c1)C(=O)c1ccc(OC)cc1C2(Cc1ccnc(F)c1)Cc1ccnc(F)c1,151 to 152
21,CCCCC(=O)Nc1c(C)c(C)c2c(c1C)C(c1ccc(C(C)C)cc1)C(C)(C)O2 (configuration not stated),106 to 107
22,CCOC1OC(=O)CC1NC(=O)C1CCCN1C(=O)C(NC(=O)c1ccc(N)c(Cl)c1)C(C)(C)C (configuration not stated),96 to 99
23,CCCCc1ncc(CC(NC(=O)CC)C(=O)O)n1Cc1ccccc1Cl (configuration not stated),203 to 205
24,CC(C)CC(CO)NC(=O)C(Cc1c[nH]cn1)NC(=O)C(Cc1cccc2ccccc12)NC(=O)COc1cccc2ccccc12 (configuration not stated),215 to 217
